From patent US20080219972A1, “Prostatic Acid Phosphatase (Pap) Materials and Methods of Use Thereof in the Prophylactic and Therapeutic Treatment of Prostate Cancer” (UNIVERSITY OF MARYLAND, BALTIMORE, priority 2005, published 2008) come the findings set out here.

This experiment relates to CD4 T-cells from PBMC of HLA-DRB1*1501-positive GP patients and normal male donors. In words: Human CD4 T-cell line responses to PAP polypeptides (IFN-γ ELISPOT, proliferation assay, IFN-γ ELISA). The class given is cell-based. The protocol:
The PAP polypeptides identified above were tested in human cultures. CD4 T-cell lines, which were specific for polypeptide 15 or polypeptide 19, were established from PBMC of HLA-DRB1*1501-positive GP patients and normal male donors by repeated stimulations with the polypeptide 19. After two rounds of in vitro stimulation, T-cells were plated at 2×10^4 cells/well in 96-well, round-bottomed plates, and stimulated by irradiated autologous PBMC in the presence/absence of polypeptide 19 or control polypeptide 15.
No polypeptide-specific responses were detected in primary PBMC cultures by IFN-γ ELISPOT, proliferation assay, or IFN-γ ELISA. When CD4 T-cells were stimulated with polypeptide […], cells from three of five GP patients and three of four normal male donors responded to the specific peptide in secondary cultures.
The HLA restriction of the cell line was confirmed using an immortalized B-cell line derived from a patient with type II Bare Lymphocyte Syndrome (BLC cells) and engineered to express HLA-DRB1*1501.
A CD4 T-cell line, which was developed from patient Pr131 by repeated stimulation with polypeptide 19, recognized human and mouse homolog polypeptides.

As for “ESEEFLKRLHPYKSFLD TLS (ESEEFLKRLHPYKSFLDTLS; listed as Mus musculus) [mouse homolog, mouse polypeptide corresponding to human polypeptide 19, six amino acid substitutions]”, the “avidity relative to human polypeptide 19” value (inferred from concentration range of response) is “higher avidity”. Besides, the “recognition by Pr131 CD4 T-cell line raised with polypeptide 19” value (line developed by repeated stimulation with polypeptide 19) is on record as “recognized”. Besides, the “response of Pr131 CD4 T-cell line stimulated with irradiated autologous PBMC” value (seen in a broader range of concentration) was “strong response”.
